The record followed here is patent US8937091B2 (Japan Science and Technology Agency, priority 2009, dated 2015).

The target of assay [1] is TGase (Cavia porcellus, UniProt P08587). In kind it is biochemical. As to conditions: level with DMSO control designated as 100. As for the experimental part:
An enzyme reaction solution (0.1 ml) (100 mM HEPES-NaOH, pH 7.5, 1 mM CaCl2, 20 μM monodansyl cadaverine, 0.05 mg/ml N,N-dimethylcasein, 5 μg/ml TGase) was introduced into wells of a 96-well plate (Nunc, 96 Well Black Plate with Clear Bottom). A test compound was added in concentrations of 0.3, 1.0, 3.0, 10, and 30 μM. The solution and the compound were sufficiently mixed while preventing foaming. The plate was set in the fluorescence drug screening system FDSS 3000 (Hamamatsu Photonics K.K.). TGase-inhibiting activity of the compound was calculated by assaying changes in fluorescence wavelength (at 340 nm) per unit time. […] The assay level at which TGase activity decreased by half in the presence of the test compound was designated as TG 50.
Hereafter, the numerals in parentheses written after the TG level, the SOCE level, and the IICR level correspond to the test compound concentrations. The number following the name of each title compound used in the Examples below represents a compound ID number designated arbitrarily by the present inventors.

Assay [2] deals with SOCE (store operated calcium entry) in CHO cells. Kind of assay: Assay of SOCE (store operated calcium entry)-inhibiting action. In kind it is cell-based, Chinese hamster. The note with it: CHO cells, thapsigargin. In outline:
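CHO cells in calcium-free BSS received compound, then 1 μM thapsigargin 2 min later to deplete stores; after 9 min, 2 mM calcium chloride (final) added. Percent inhibition of the rise in intracellular calcium determined at various compound concentrations.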

Assay [3] concerns IICR (IP3 induced calcium release) in CHO cells. Kind of assay: Assay of IICR (IP3 induced calcium release)-inhibiting action. In kind it is cell-based, Chinese hamster. The note with it: CHO cells, 10 μM ATP. The gist of the method:
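CHO cell medium replaced with calcium-containing BSS; compound added 1 min later, then 10 μM ATP after a further 2 min. Percent inhibition of the ATP-evoked rise in intracellular calcium determined at each compound concentration.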

Like-named read-outs stand apart in the source and are kept apart here.

With `O=C(CCNCCSSCCNCCC(=O)c1ccc2ccccc2c1)c1ccc2ccccc2c1` [Example 370], the values for the TG level in assay [1] (test compound 3 μmol) and in assay [1] (test compound 30 μmol) were 36 and 1.6, respectively. Besides, the “SOCE level (percentage of inhibition)” value in assay [2] (test compound 10 μmol) was 0%; in assay [2] (test compound 30 μmol), 0%; in assay [2] (test compound 100 μmol), 3%. Moreover, the results for the “IICR level (percentage of inhibition)” value in assay [3] (test compound 10 μmol), in assay [3] (test compound 30 μmol) and in assay [3] (test compound 100 μmol) were 0%, 0% and 29%, respectively.
Turning to `O=C(CCNCCSSCCNCCC(=O)c1ccco1)c1ccco1` [Example 372], the TG level in assay [1] (test compound 3 μmol) is given as 13; in assay [1] (test compound 30 μmol), −1.5. In addition, the entries for the “SOCE level (percentage of inhibition)” value in assay [2] (test compound 10 μmol), in assay [2] (test compound 30 μmol) and in assay [2] (test compound 100 μmol) were 0%, 0% and 15%, respectively. Besides, the “IICR level (percentage of inhibition)” value was determined as 0% in assay [3] (test compound 10 μmol), 54% in assay [3] (test compound 30 μmol) and 58% in assay [3] (test compound 100 μmol).
On to `O=C(CCNCCSSCCNCCC(=O)c1ccsc1)c1ccsc1` [Example 380], for which the TG level in assay [1] (test compound 3 μmol) came out at 25; in assay [1] (test compound 30 μmol) it was 4.2. For the same compound, the “SOCE level (percentage of inhibition)” value in assay [2] (test compound 10 μmol) is on record as 4%; in assay [2] (test compound 30 μmol), 31%; in assay [2] (test compound 100 μmol), 70%. Further, the “IICR level (percentage of inhibition)” value in assay [3] (test compound 10 μmol) was found to be 10%; in assay [3] (test compound 30 μmol) it was 76%; in assay [3] (test compound 100 μmol) it was 81%.
As for “N,N-bis(2-(4-bromobenzoyl)ethyl)cystinemethylester [Example 392]”, the TG level in assay [1] (test compound 3 μmol) worked out at 25; in assay [1] (test compound 10 μmol) it was 3.7; in assay [1] (test compound 30 μmol), 2.3. Also, the figures for the “SOCE level (percentage of inhibition)” value in assay [2] (test compound 10 μmol), in assay [2] (test compound 30 μmol) and in assay [2] (test compound 100 μmol) were 20%, 40% and 50%, respectively. In addition, the “IICR level (percentage of inhibition)” value in assay [3] (test compound 10 μmol) is 58%; in assay [3] (test compound 30 μmol), 61%; in assay [3] (test compound 100 μmol), 76%.
For “N,N-bis(2-(4-pyridinoyl)ethyl)cystinemethylester [Example 393]”, the figures for the TG level in assay [1] (test compound 3 μmol), in assay [1] (test compound 10 μmol) and in assay [1] (test compound 30 μmol) were 54, 16 and 3.5, respectively. In addition, the entries for the “SOCE level (percentage of inhibition)” value in assay [2] (test compound 10 μmol), in assay [2] (test compound 30 μmol) and in assay [2] (test compound 100 μmol) were 20%, 40% and 50%, respectively. Also, the figures for the “IICR level (percentage of inhibition)” value in assay [3] (test compound 10 μmol), in assay [3] (test compound 30 μmol) and in assay [3] (test compound 100 μmol) were 44%, 42% and 21%, respectively.
Consider “N,N-bis(2-(5-bromo-2-thiophenoyl)ethyl)cystinemethylester [Example 386]”, for which the TG level in assay [1] (test compound 3 μmol) was 4.6; in assay [1] (test compound 10 μmol), 2.9; in assay [1] (test compound 30 μmol) it was 14. Moreover, the “SOCE level (percentage of inhibition)” value in assay [2] (test compound 10 μmol) is recorded as 20%; in assay [2] (test compound 30 μmol), 40%; in assay [2] (test compound 100 μmol) it was 50%. For the same compound, the “IICR level (percentage of inhibition)” value in assay [3] (test compound 10 μmol) was found to be 44%; in assay [3] (test compound 30 μmol), 72%; in assay [3] (test compound 100 μmol) it was 77%.
With “N,N-bis(2-naphthoylethyl)cystinemethylester [Example 391]”, the TG level in assay [1] (test compound 3 μmol) is recorded as 33; in assay [1] (test compound 10 μmol), 6.4; in assay [1] (test compound 30 μmol), 29. Also, the results for the “SOCE level (percentage of inhibition)” value in assay [2] (test compound 10 μmol), in assay [2] (test compound 30 μmol) and in assay [2] (test compound 100 μmol) were 20%, 40% and 50%, respectively. Besides, the “IICR level (percentage of inhibition)” value in assay [3] (test compound 10 μmol) worked out at 6%; in assay [3] (test compound 30 μmol), 37%; in assay [3] (test compound 100 μmol), 41%.
For the compound “N,N-bis(2-thiophenoylethyl)cystinemethylester [Example 389]”, the TG level was 9.7 in assay [1] (test compound 3 μmol), 2.7 in assay [1] (test compound 10 μmol) and −3.8 in assay [1] (test compound 30 μmol). For the same compound, the “SOCE level (percentage of inhibition)” value was 20% in assay [2] (test compound 10 μmol), 40% in assay [2] (test compound 30 μmol) and 50% in assay [2] (test compound 100 μmol). Further, the “IICR level (percentage of inhibition)” value in assay [3] (test compound 10 μmol) stood at 22%; in assay [3] (test compound 30 μmol), 45%; in assay [3] (test compound 100 μmol) it was 54%.
